Earlier results, collected in patent US9857354B2, “Compositions and methods for prognosis and treatment of neoplasm” (NOVAZOI THERANOSTICS, INC., priority 2014, dated 2018).

Tests used:
[1] = target: T1, KIFC1/microtubule (MT) binary complex (Homo sapiens, UniProt Q9BW19); details: ATP-competitive and MT-noncompetitive; read-out: Ki, inhibition of MT-stimulated KIFC1 enzymatic activity
T1 sequence (Q9BW19 1-673): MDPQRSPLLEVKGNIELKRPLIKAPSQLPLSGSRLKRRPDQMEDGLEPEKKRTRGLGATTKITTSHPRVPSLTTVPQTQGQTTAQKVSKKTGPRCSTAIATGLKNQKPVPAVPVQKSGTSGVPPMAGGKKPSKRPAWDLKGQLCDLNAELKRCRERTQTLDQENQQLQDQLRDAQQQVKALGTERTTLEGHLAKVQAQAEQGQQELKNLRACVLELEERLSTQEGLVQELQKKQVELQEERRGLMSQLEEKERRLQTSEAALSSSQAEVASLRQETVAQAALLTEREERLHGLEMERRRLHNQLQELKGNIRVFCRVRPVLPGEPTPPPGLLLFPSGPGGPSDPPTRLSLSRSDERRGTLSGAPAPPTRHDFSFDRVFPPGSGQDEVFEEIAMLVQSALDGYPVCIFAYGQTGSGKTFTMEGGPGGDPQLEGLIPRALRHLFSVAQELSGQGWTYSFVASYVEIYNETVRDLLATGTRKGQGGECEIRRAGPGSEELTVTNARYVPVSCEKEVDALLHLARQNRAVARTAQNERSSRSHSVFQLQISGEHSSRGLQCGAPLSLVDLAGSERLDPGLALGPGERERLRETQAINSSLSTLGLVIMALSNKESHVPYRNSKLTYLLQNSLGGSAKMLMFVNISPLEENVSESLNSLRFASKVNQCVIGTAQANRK

[2] = tested on: BT-549 breast cancer cells; details: BT-549 breast cancer cells with amplified centrosomes

CCCc1cc(C(=O)N[C@H](Cc2ccc(-c3cccc(OC(F)(F)F)c3)nc2)C(=O)N[C@@H]2CCNC2)sc1C [AZ82]
Ki [1]: 43 nM | centrosome declustering [2]: causes centrosome declustering
